Laboratory results from the NIST ThermoML archive (doi:10.1021/je700339f).

Assay: xn = mol fraction of the nth substance listed
Conditions: 298.15 K, Liquid

ClCCCl [1,2-dichloroethane] + CN(C)C=O
mass density [kg/m3]
Conditions	x2 = 0.0805	x2 = 0.1978	x2 = 0.302	x2 = 0.397	x2 = 0.4988	x2 = 0.6023	x2 = 0.7054	x2 = 0.8005	x2 = 0.9071
10000 kPa	–	–	–	1134.5	1103.3	1071.8	1040.6	–	979.1
10500 kPa	1230.8	1195.4	1163.6	1134.9	1103.7	1072.2	1040.9	1012.2	979.4
11000 kPa	1231.2	1195.8	1164.1	1135.3	1104	1072.5	1041.2	1012.4	979.7
11400 kPa	–	–	1164.4	–	–	–	–	–	–
11500 kPa	1231.7	1196.2	–	1135.7	1104.4	1072.9	1041.6	1012.8	980
11900 kPa	–	–	–	1136	–	–	1041.9	–	–
12000 kPa	1232.2	1196.7	1164.9	–	1104.8	1073.2	–	1013.2	980.3
12400 kPa	–	–	1165.2	–	–	–	1042.2	–	980.5
12500 kPa	1232.6	1197.1	–	1136.5	1105.2	1073.5	–	1013.5	–
12900 kPa	–	–	–	1136.8	–	–	–	–	–
13000 kPa	1233.1	1197.4	1165.6	–	1105.6	1073.9	1042.6	1013.8	980.9
13400 kPa	1233.4	–	–	–	–	–	–	–	–
13500 kPa	–	1197.9	1166	1137.3	1105.9	1074.2	1042.9	1014.1	981.2
13900 kPa	–	–	–	–	–	1074.6	–	–	–
14000 kPa	1233.9	1198.3	1166.4	1137.6	1106.2	–	1043.2	1014.4	981.5
14500 kPa	1234.3	1198.8	1166.8	1137.9	1106.6	1074.9	1043.5	1014.7	981.8
14900 kPa	–	–	–	1138.2	–	–	1043.8	–	–
15000 kPa	1234.7	1199.1	1167.2	–	1107	1075.2	–	1015	982.1
15400 kPa	–	–	–	–	–	–	–	–	982.3
15500 kPa	1235.2	1199.6	1167.6	1138.7	1107.3	1075.6	1044.2	1015.3	–
15900 kPa	–	1199.9	–	–	–	–	–	–	–
16000 kPa	1235.6	–	1168	1139	1107.7	1075.9	1044.5	1015.7	982.6
16400 kPa	–	1200.3	–	–	–	–	–	1015.9	–
16500 kPa	1236	–	1168.4	1139.4	1108	1076.2	1044.8	–	983
16900 kPa	–	–	–	1139.7	–	–	–	–	–
17000 kPa	1236.4	1200.7	1168.7	–	1108.4	1076.6	1045.1	1016.3	983.2
17500 kPa	1236.8	1201.1	1169.1	1140.1	1108.7	1076.9	1045.4	1016.6	983.5
17900 kPa	–	–	–	–	–	–	–	1016.9	–
18000 kPa	1237.2	1201.5	1169.5	1140.5	1109	1077.3	1045.7	–	983.8
18400 kPa	–	–	–	–	–	1077.6	–	–	–
18500 kPa	1237.7	1201.9	1169.9	1140.8	1109.4	–	1046.1	1017.2	984.1
19000 kPa	1238.2	1202.4	1170.2	1141.2	1109.9	1078	1046.4	1017.5	984.4
19500 kPa	1238.6	1202.7	1170.6	1141.6	1110.2	1078.3	1046.7	1017.8	984.7
20000 kPa	1239	1203.1	1171.1	1142.1	1110.6	1078.6	1047.08	1018.2	985.1
